Test results reported in patent US20260345619A1 (Principia Biopharma Inc., priority 2023, published 2026).

Test: Loss of asthma control (LOAC) events, 12-week ICS/LABA withdrawal study
Type: in vivo, human
Source text: The general construct of this 12-week Loss of Asthma Control (LOAC) study consisted of a 4-week standardized ICS/LABA background therapy stabilization phase, a 4or 5-week background therapy withdrawal phase and a 3- or 4-week no background therapy phase, followed by a 4-week post IMP treatment safety follow-up period at the beginning of which, pre-screening asthma controller medications are restarted. Participants had access to short-acting β-agonist (SABA) reliever medication at all times during the protocol.
The primary endpoint was the proportion of patients with LOAC. The key secondary endpoint for the study was change in pre-bronchodilator FEV1 from baseline at EOT.
The primary endpoint was proportion of participants with LOAC during the 12-week treatment period.
Note that if the number of participants in some regions was too low, these regions may have been pooled with other regions. This strategy also applied to all the rest of the analyses where region was one of the covariates.
To assess the consistency in treatment effects across different subgroup levels, subgroup analyses were to be performed for the primary efficacy endpoint with respect to age group, gender, region, and other factors.
Secondary endpoints included pre-bronchodilator FEV1 change from baseline at EOT, ACQ-5 score change from baseline, and AQLQ score change from baseline. Other secondary and exploratory endpoints are described in Table 2.

[1] = 400 mg TID cohort, N = 64, mITT
[2] = 400 mg TID cohort, age <45 years, n = 25
[3] = 400 mg TID cohort, age ≥45 years, n = 39
[4] = 400 mg TID cohort, baseline BMI <25 kg/m^2, n = 12
[5] = 400 mg TID cohort, baseline BMI ≥25-<30 kg/m^2, n = 29
[6] = 400 mg TID cohort, baseline BMI ≥30 kg/m^2, n = 23
[7] = 400 mg TID cohort, baseline weight <60 kg, n = 2
[8] = 400 mg TID cohort, baseline weight ≥60-<90 kg, n = 41
[9] = 400 mg TID cohort, baseline weight ≥90 kg, n = 21
[10] = 400 mg TID cohort, female, n = 39
[11] = 400 mg TID cohort, male, n = 25
[12] = 400 mg TID, N=64, 12 weeks, mITT
[13] = 400 mg TID, 1 exacerbation within 2 years
[14] = 400 mg TID, 2 exacerbations within 2 years
[15] = 400 mg TID, FEV1 reversibility <12 %
[16] = 400 mg TID, FEV1 reversibility ≥12 %
[17] = 400 mg TID, age at onset <12 years
[18] = 400 mg TID, age at onset <18 years
[19] = 400 mg TID, age at onset ≥18-<40 years
[20] = 400 mg TID, age at onset ≥18 years
[21] = 400 mg TID, age at onset ≥40 years

For `CC(C)(C=C(C#N)C(=O)N1CCC[C@@H](n2nc(-c3ccc(Oc4ccccc4)cc3F)c3c(N)ncnc32)C1)N1CCN(C2COC2)CC1` (mixture of isomers) [rilzabrutinib, (R)-2-[3-[4-amino-3-(2-fluoro-4-phenoxy-phenyl)pyrazolo[3,4-d]pyrimidin-1-yl]piperidine-1-carbonyl]-4-methyl-4-[4-(oxetan-3-yl)piperazin-1-yl]pent-2-enenitrile], the “Intervention discontinuation due to lack of efficacy or an AE related to asthma worsening, number” value [1] was 1, the “Intervention discontinuation due to lack of efficacy or an AE related to asthma worsening, percentage” value [1] was “(1.6)” and the “Number of participants requiring hospitalization or emergency room visit” value [1] was 0. For the same compound, the “Number of participants with LOAC: Yes” value [1] was 12, the “Number of participants with increase in ICS ≥4 times the last prescribed ICS dose (or ≥50% of the prescribed ICS dose at baseline if background therapy withdrawal completed)” value [1] was 0 and the “Number of participants with ≥6 additional reliever puffs of salbutamol/albuterol or levosalbutamol/levalbuterol in a 24 hour period (compared with baseline) on 2 consecutive days” value [1] was 0. The “Number of participants with ≥30% reduction from baseline in AM PEF on 2 consecutive days” value [1] was 10, the “Participants with LOAC not triggered by use of rescue medication, number” value [1] was 10 and the “Participants with LOAC not triggered by use of rescue medication, percentage” value [1] was “(15.6)”. The “Participants with LOAC triggered by use of rescue medication, number” value [1] was 1, the “Participants with LOAC triggered by use of rescue medication, percentage” value [1] was “(1.6)” and the “Percentage of participants with LOAC: No” value [1] was “(81.3)”. The “Percentage of participants with LOAC: Yes” value [1] was “(18.8)”, the “Percentage of participants with ≥30% reduction from baseline in AM PEF on 2 consecutive days” value [1] was “(15.6)” and the “LOAC incidence, number of participants” value (400 mg TID cohort, Western Countries, n = 2) was 0. For the same compound, the “LOAC incidence, number of participants” value [2] was 2, the “LOAC incidence, percentage” value [2] was “(8.0)” and the “LOAC OR vs. placebo” value (400 mg TID cohort, age <45 years, 95% CI (0.028, 0.725)) was 0.142. The “LOAC RD vs. placebo” value (400 mg TID cohort, age <45 years, 95% CI (−0.505, −0.093)) was −0.299, the “LOAC incidence, number of participants” value [3] was 10 and the “LOAC incidence, percentage” value [3] was “(25.6)”. For the same compound, the “LOAC OR vs. placebo” value (400 mg TID cohort, age ≥45 years, 95% CI (0.408, 3.236)) was 1.149, the “LOAC RD vs. placebo” value (400 mg TID cohort, age ≥45 years, 95% CI (−0.165, 0.216)) was 0.026 and the “LOAC incidence, number of participants” value [4] was 3. For the same compound, the “LOAC incidence, percentage” value [4] was “(25.0)”, the “LOAC OR vs. placebo” value (400 mg TID cohort, baseline BMI <25 kg/m^2, 95% CI (0.121, 2.801)) was 0.583 and the “LOAC RD vs. placebo” value (400 mg TID cohort, baseline BMI <25 kg/m^2, 95% CI (−0.431, 0.203)) was −0.114. For the same compound, the “LOAC incidence, number of participants” value [5] was 3, the “LOAC incidence, percentage” value [5] was “(10.3)” and the “LOAC OR vs. placebo” value (400 mg TID cohort, baseline BMI ≥25-<30 kg/m^2, 95% CI (0.064, 1.172)) was 0.274. The “LOAC RD vs. placebo” value (400 mg TID cohort, baseline BMI ≥25-<30 kg/m^2, 95% CI (−0.398, 0.012)) was −0.193, the “LOAC incidence, number of participants” value [6] was 6 and the “LOAC incidence, percentage” value [6] was “(26.1)”. The “LOAC OR vs. placebo” value (400 mg TID cohort, baseline BMI ≥30 kg/m^2, 95% CI (0.313, 5.604)) was 1.324, the “LOAC RD vs. placebo” value (400 mg TID cohort, baseline BMI ≥30 kg/m^2, 95% CI (−0.206, 0.307)) was 0.050 and the “LOAC incidence, number of participants” value [7] was 1. For the same compound, the “LOAC incidence, percentage” value [7] was “(50.0)”, the “LOAC OR vs. placebo” value (400 mg TID cohort, baseline weight <60 kg, 95% CI (0.140, 64.262)) was 3.000 and the “LOAC RD vs. placebo” value (400 mg TID cohort, baseline weight <60 kg, 95% CI (−0.485, 0.985)) was 0.250. For the same compound, the “LOAC incidence, number of participants” value [8] was 8, the “LOAC incidence, percentage” value [8] was “(19.5)” and the “LOAC OR vs. placebo” value (400 mg TID cohort, baseline weight ≥60-<90 kg, 95% CI (0.182, 1.392)) was 0.503. The “LOAC RD vs. placebo” value (400 mg TID cohort, baseline weight ≥60-<90 kg, 95% CI (−0.319, 0.059)) was −0.130, the “LOAC incidence, number of participants” value [9] was 3 and the “LOAC incidence, percentage” value [9] was “(14.3)”. The “LOAC OR vs. placebo” value (400 mg TID cohort, baseline weight ≥90 kg, 95% CI (0.095, 2.645)) was 0.500, the “LOAC RD vs. placebo” value (400 mg TID cohort, baseline weight ≥90 kg, 95% CI (−0.367, 0.153)) was −0.107 and the “LOAC incidence, number of participants” value [10] was 8. For the same compound, the “LOAC incidence, percentage” value [10] was “(20.5)”, the “LOAC OR vs. placebo” value (400 mg TID cohort, female, 95% CI (0.224, 1.828)) was 0.640 and the “LOAC RD vs. placebo” value (400 mg TID cohort, female, 95% CI (−0.291, 0.123)) was −0.084. For the same compound, the “LOAC incidence, number of participants” value [11] was 4, the “LOAC incidence, percentage” value [11] was “(16.0)” and the “LOAC OR vs. placebo” value (400 mg TID cohort, male, 95% CI (0.091, 1.966)) was 0.423. The “participants without LOAC, number” value [12] was 52, the “participants without LOAC, percent” value [12] was “(81.3)” and the “participants with LOAC, number” value (400 mg TID, N=64, 12 weeks, mITT, placebo 20) was 12. The “participants with LOAC, percent” value (400 mg TID, N=64, 12 weeks, mITT, placebo […]) was 18.8%, the “RRR vs. placebo (%), LOAC” value (400 mg TID, mITT) was 34.7% and the “RR vs. placebo, LOAC” value (400 mg TID, mITT, 95% CI 0.348, 1.226) was 0.653. The “RD (risk difference) vs. placebo, LOAC” value (400 mg TID, mITT, 95% CI −0.238, 0.061) was −0.088, the OR vs. placebo [13] was 0.323 and the “RD vs. Placebo” value [13] was −0.194. The “LOAC, number” value [14] was 7, the OR vs. placebo [14] was 1.896 and the “RD vs. Placebo” value [14] was 0.117. For the same compound, the “LOAC, number” value (400 mg TID, >2 exacerbations within 2 years) was 0, the “LOAC, number” value [15] was 9 and the OR vs. placebo [15] was 0.643. For the same compound, the “RD vs. Placebo” value [15] was −0.082, the “LOAC, number” value [16] was 1 and the OR vs. placebo [16] was 0.417. The “RD vs. Placebo” value [16] was −0.090, the “LOAC, number” value [17] was 2 and the OR vs. placebo [17] was 0.250. The “RD vs. Placebo” value [17] was −0.257, the “LOAC, number” value [18] was 2 and the OR vs. placebo [18] was 0.218. The “RD vs. Placebo” value [18] was −0.245, the “LOAC, number” value (400 mg TID, age at onset ≥12-<18 years) was 0 and the “LOAC, number” value [19] was 6. For the same compound, the OR vs. placebo [19] was 0.514, the “RD vs. Placebo” value [19] was −0.135 and the “LOAC, number” value [20] was 10. For the same compound, the OR vs. placebo [20] was 0.769, the “RD vs. Placebo” value [20] was −0.049 and the “LOAC, number” value [21] was 4. For the same compound, the OR vs. placebo [21] was 1.619, the “RD vs. Placebo” value [21] was 0.072 and the “LOAC, number” value (400 mg TID, all others than low EOS and low FeNO) was 8.
